According to US10952995B2, “Azaindoles as inhibitors of HPK1” (Genentech, Inc., priority 2017, dated 2021):
pKi: −log10 of the molar value. Counter-ions that a name gives are not always drawn.

Each compound was assayed against HPK1 (Homo sapiens (Human), UniProt Q92918) (assay: HPK Lantha Binding Assay (TR-FRET, Tracer-222 / Eu-Anti-GST Ab)). Conditions: 2 nM HPK1, 2 nM Eu-Anti-GST Ab, 15 nM Tracer222, 60 min incubation; Morrison ki fit.
Protocol: Methods for Biological evaluation to assess compound inhibition of HPK-1:
I. Compound Dilution: • 1. Prepare 12.5 uL/well of 5 mM of compounds (100×) to column 2 and column 13 & 10 ul/well DMSO in column 3-12, 14-23 and well A1-H1, I24-P24 of compound plate with Bravo. For reference compound, the top concentration is 1 mM • 2. Add 10 ul 2 mM staurosporine in well J1-P1 and A24-H24 • 3. Perform 11 point 5-fold compound serial dilution with Bravo • a. transfer 2.5 ul compounds from column 2 and column 13 to 10 ul of DMSO in column 3 and column 14 & so on • 4. Centrifuge the compound plate at 2500 rpm for 1 min • 5. Transfer 80 nl compounds into assay plate using Echo. One compound plate makes two assay plates • 6. Seal the assay plate and store in N2 cabinet.
2 nM HPK1, 2 nM Eu-Anti-GST Ab, 15 nM Tracer222, 60 min incubation
III. HPK Lantha Binding Assay: • 1. Add 4 ul 2×HPK1 and Eu-anti-GST antibody into each well of assay plate using Multidrop • 2. Incubate at 23 C incubator for 1 h • 3. Add 4 ul 2× Tracer-222 into each well of assay plate using Multidrop • 4. Incubate at 23 C incubator for 1 h • 5. Read the assay plate in Envision • a. TR_FRET, 340 ex/615 and 665 em • b. 100 usec Delay, 200 usec integration
IV. Analysis: • 1. Compound Ki was analyzed using Morrison ki fit model in XL-fit • a. fit=(1−((((E+x)+(Ki*(1[…](S/Kd))))−(((((E+x)+(Ki*(1+(S/Kd))))^2)−((4*E)*x))^0.5))/(2*E))) • res=(y-fit) • b. Parameters: • E=enzyme concentration • S=Tracer222 concentration, Kd=Tracer222 Kd • All in the same units (uM)

Sequence of HPK1 (Q92918 1-346): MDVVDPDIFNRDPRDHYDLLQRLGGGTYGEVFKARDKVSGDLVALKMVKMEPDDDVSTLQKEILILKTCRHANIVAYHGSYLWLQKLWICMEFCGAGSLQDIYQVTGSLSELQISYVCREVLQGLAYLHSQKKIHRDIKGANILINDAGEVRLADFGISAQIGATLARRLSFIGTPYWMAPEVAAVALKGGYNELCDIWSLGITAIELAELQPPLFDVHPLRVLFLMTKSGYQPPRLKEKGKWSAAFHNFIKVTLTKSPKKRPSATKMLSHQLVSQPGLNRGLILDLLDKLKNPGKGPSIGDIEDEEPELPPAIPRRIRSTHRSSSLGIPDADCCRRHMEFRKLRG

SMILES | pKi
Cc1[nH]c2ncc(-c3ccc(N)c(C(=O)N(C)C)n3)cc2c1C(F)(F)F [Compound 1-9, 3-amino-N,N-dimethyl-6-(2-methyl-3-(trifluoromethyl)-1H-pyrrolo[2,3-b]pyridin-5-yl)picolinamide] | 7.12
Cc1[nH]c2ncc(-c3cc(N)cc(-c4ncccc4CO)c3)cc2c1C(F)(F)F [Compound 1-12, (2-(3-amino-5-(2-methyl-3-(trifluoromethyl)-1H-pyrrolo[2,3-b]pyridin-5-yl)phenyl)pyridin-3-yl)methanol] | 7.62
O=C1COCCN1c1cccc(-c2cnc3[nH]c(CO)c(C(F)(F)F)c3c2)c1 [Compound 1-13, 4-(3-(2-(hydroxymethyl)-3-(trifluoromethyl)-1H-pyrrolo[2,3-b]pyridin-5-yl)phenyl)morpholin-3-one] | 5.77
Cc1[nH]c2ncc(-c3ccc(N)c(N4CCOCC4=O)n3)cc2c1C(F)(F)F [Compound 1-11, 4-(3-amino-6-(2-methyl-3-(trifluoromethyl)-1H-pyrrolo[2,3-b]pyridin-5-yl)pyridin-2-yl)morpholin-3-one] | 7.89
Cc1[nH]c2ncc(-c3cccc(N4CCOCC4=O)n3)cc2c1C(F)(F)F [Compound 1-8, 4-(6-(2-methyl-3-(trifluoromethyl)-1H-pyrrolo[2,3-b]pyridin-5-yl)pyridin-2-yl)morpholin-3-one] | 7.17
CCc1c(C)[nH]c2ncc(-c3ccc(N)c(C(=O)N(C)C)c3)cc12 [Compound 1-4, 2-amino-5-(3-ethyl-2-methyl-1H-pyrrolo[2,3-b]pyridin-5-yl)-N,N-dimethylbenzamide] | 7.82
CCc1c(Cl)[nH]c2ncc(-c3ccc(N)c(C(=O)N(C)C)n3)cc12 [Compound 1-2, 3-amino-6-(2-chloro-3-ethyl-1H-pyrrolo[2,3-b]pyridin-5-yl)-N,N-dimethylpicolinamide] | 8.52
CCc1c(Cl)[nH]c2ncc(-c3ccc(N)c(C(=O)N(C)C)c3)cc12 [Compound 1-3, 2-amino-5-(2-chloro-3-ethyl-1H-pyrrolo[2,3-b]pyridin-5-yl)-N,N-dimethylbenzamide] | 9.05
CCc1c(Cl)[nH]c2ncc(-c3ccnc(N4CCOC4=O)n3)cc12 [Compound 1-7, 3-(4-(2-chloro-3-ethyl-1H-pyrrolo[2,3-b]pyridin-5-yl)pyrimidin-2-yl)oxazolidin-2-one formate] | 7.48
CCc1c(Cl)[nH]c2ncc(-c3cccc(N4CCOCC4=O)n3)cc12 [Compound 1-5, 4-(6-(2-chloro-3-ethyl-1H-pyrrolo[2,3-b]pyridin-5-yl)pyridin-2-yl)morpholin-3-one] | 8.70
CCc1c(Cl)[nH]c2ncc(-c3ccc(N)c(C(=O)N4CC(O)C4)n3)cc12 [Compound 1-6, (3-amino-6-(2-chloro-3-ethyl-1H-pyrrolo[2,3-b]pyridin-5-yl)pyridin-2-yl)(3-hydroxyazetidin-1-yl)methanone formate] | 7.82
CCc1c(Cl)[nH]c2ncc(-c3cccc(N4CCOCC4=O)c3)cc12 [Compound 1-1, 4-(3-(2-chloro-3-ethyl-1H-pyrrolo[2,3]pyridin-5-yl)phenyl)morpholin-3-one] | 8.70
Cc1[nH]c2ncc(-c3ccc(N)c(C(=O)N(C)C)c3)cc2c1C(F)(F)F [Compound 1-10, 2-amino-N,N-dimethyl-5-(2-methyl-3-(trifluoromethyl)-1H-pyrrolo[2,3-b]pyridin-5-yl)benzamide] | 7.49

Now from value to compound:

pKi | SMILES
8.57 | CCc1c(Cl)[nH]c2ncc(-c3ccc(N)c(C(=O)N(C)C)c3F)cc12 [Compound 1-27, 6-amino-3-(2-chloro-3-ethyl-1H-pyrrolo[2,3-b]pyridin-5-yl)-2-fluoro-N,N-dimethylbenzamide]
6.80 | COCc1c(Cl)[nH]c2ncc(-c3ccc(N)c(C(=O)N(C)C)c3F)cc12 [Compound 1-23, 6-amino-3-(2-chloro-3-(methoxymethyl)-1H-pyrrolo[2,3-b]pyridin-5-yl)-2-fluoro-N,N-dimethylbenzamide]
7.49 | CCc1c(Cl)[nH]c2ncc(-c3ccc(C4NCCNC4=O)cc3)cc12 (stereo not drawn) [Compound 1-24, 3-(4-(2-chloro-3-ethyl-1H-pyrrolo[2,3-b]pyridin-5-yl)phenyl)piperazin-2-one]
7.09 | Cc1[nH]c2ncc(-c3cccc(N4CCCNC4=O)n3)cc2c1C(F)(F)F [Compound 1-16, 1-(6-(2-methyl-3-(trifluoromethyl)-1H-pyrrolo[2,3-b]pyridin-5-yl)pyridin-2-yl)tetrahydropyrimidin-2(1H)-one]
7.77 | O=C1COCCN1c1cccc(-c2cnc3[nH]c(Cl)c(CCF)c3c2)c1 [Compound 1-14, 4-(3-(2-chloro-3-(2-fluoroethyl)-1H-pyrrolo[2,3-b]pyridin-5-yl)phenyl) morpholin-3-one]
7.77 | CN(C)C(=O)c1c(N)ccc(-c2cnc3[nH]c(Cl)c(CCO)c3c2)c1F [Compound 1-20, 6-Amino-3-[2-chloro-3-(2-hydroxyethyl)-1H-pyrrolo[2,3-b]pyridin-5-yl]-2-fluoro-N,N-dimethylbenzamide]
8.40 | CCc1c(F)[nH]c2ncc(-c3cccc(N4CCOCC4=O)c3)cc12 [Compound 1-18, 4-[3-(3-Ethyl-2-fluoro-1H-pyrrolo[2,3-b]pyridin-5-yl)phenyl]morpholin-3-one]
8.03 | CN(C)C(=O)c1cc(-c2cnc3[nH]c(Cl)c(CCO)c3c2Cl)ccc1N [Compound 1-22, 2-amino-5-(2,4-dichloro-3-(2-hydroxyethyl)-1H-pyrrolo[2,3-b]pyridin-5-yl)-N,N-dimethylbenzamide]
5.89 | Cc1cc2cc(-c3ccc(N)c(C(=O)N(C)C)c3)cnc2[nH]1 [Compound 1-17, 2-amino-N,N-dimethyl-5-(2-methyl-1H-pyrrolo[2,3-b]pyridin-5-yl)benzamide]
7.92 | CN(C)C(=O)c1c(N)ccc(-c2cnc3[nH]c(Cl)c(CCO)c3c2Cl)c1F [Compound 1-26, 6-amino-3-(2,4-dichloro-3-(2-hydroxyethyl)-1H-pyrrolo[2,3-b]pyridin-5-yl)-2-fluoro-N,N-dimethylbenzamide]
7.51 | CCc1c(Cl)[nH]c2ncc(-c3cccc(C4NCCNC4=O)c3)cc12 (stereo not drawn) [Compound 1-25, 3-(3-(2-chloro-3-ethyl-1H-pyrrolo[2,3-b]pyridin-5-yl)phenyl)piperazin-2-one]
7.05 | O=C1COCCN1c1cccc(-c2cnc3[nH]c(Cl)c(CCO)c3c2)c1 [Compound 1-21, 4-{3-[2-Chloro-3-(2-hydroxyethyl)-1H-pyrrolo[2,3-b]pyridin-5-yl]phenyl}morpholin-3-one]
9.00 | CCc1c(F)[nH]c2ncc(-c3ccc(N)c(C(=O)N(C)C)c3F)cc12 [Compound 1-19, 6-Amino-3-(3-ethyl-2-fluoro-1H-pyrrolo[2,3-b]pyridin-5-yl)-2-fluoro-N,N-dimethylbenzamide]
7.12 | Cc1[nH]c2ncc(-c3cccc(N4CCOCC4CO)n3)cc2c1C(F)(F)F (stereo not drawn) [Compound 1-15, (4-(6-(2-methyl-3-(trifluoromethyl)-1H-pyrrolo[2,3-b]pyridin-5-yl)pyridin-2-yl)morpholin-3-yl)methanol]
